From patent US10717737B2, “Cyclopropylamines as LSD1 inhibitors” (Incyte Corporation, priority 2014, dated 2020)

Molecular target: LSD1 (Homo sapiens (Human), UniProt O60341)
Experiment: biochemical
Protocol: LANCE LSD1/KDM1A demethylase assay—10 μL of 1 nM LSD-1 enzyme (ENZO BML-SE544-0050) in the assay buffer (50 mM Tris, pH 7.5, 0.01% Tween-20, 25 mM NaCl, 5 mM DTT) were preincubated for 1 hour at 25° C. with 0.8 μL compound/DMSO dotted in black 384 well polystyrene plates. […] After stopping the reactions plates were incubated for 30 minutes and read on a PHERAstar FS plate reader (BMG Labtech).

SMILES	IC50
COCC1(CN[C@@H]2C[C@H]2c2ccccc2)CCN(C(=O)N2CCC(O)CC2)CC1 [Example 112, 1-{[4-(methoxymethyl)-4-({[(1R,2S)-2-phenylcyclopropyl]amino}methyl)piperidin-1-yl]carbonyl}piperidin-4-ol]	< 100 nM
N#Cc1ccc(CC2(CN[C@@H]3C[C@H]3c3ccccc3)CCN(CC3(C(=O)O)CC3)CC2)c(F)c1 [Example 74, 1-{[4-(4-cyano-2-fluorobenzyl)-4-({[(1R,2S)-2-phenylcyclopropyl]amino}methyl)piperidin-1-yl]methyl}cyclopropanecarboxylic Acid]	< 100 nM
